Laboratory results taken from ChEMBL document CHEMBL1201862, “PubChem BioAssay data set” (2004).
Calls of active or inactive are those of the source.

Columns and labels:
[1] = biological target: T1, RNA-binding protein pos-1 (Caenorhabditis elegans, UniProt G5EF15); test: disruptors of C. elegans POS-1 RNA interaction – biochemical, fluorescence polarization, dose response (AID 1964);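 further: purified POS-1 fused to maltose binding protein made in E. coli; potency of compounds blocking POS-1 binding to fluorescent RNA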
T1 sequence (G5EF15 whole entry): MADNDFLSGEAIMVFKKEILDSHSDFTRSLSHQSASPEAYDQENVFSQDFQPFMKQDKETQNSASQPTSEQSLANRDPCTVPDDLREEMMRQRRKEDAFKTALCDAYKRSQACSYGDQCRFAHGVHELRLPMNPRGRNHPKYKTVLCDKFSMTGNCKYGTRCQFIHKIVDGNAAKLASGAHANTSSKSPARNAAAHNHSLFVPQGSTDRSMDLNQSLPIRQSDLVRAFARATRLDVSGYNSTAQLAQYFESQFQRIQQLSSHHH

[2] = biological target: T2, Zinc finger protein mex-5 (Caenorhabditis elegans, UniProt Q9XUB2); test: potency of MEX-5 RNA-binding blockers – biochemical, C. elegans, fluorescence polarization, dose response (AID 1960)
T2 sequence (Q9XUB2 whole entry): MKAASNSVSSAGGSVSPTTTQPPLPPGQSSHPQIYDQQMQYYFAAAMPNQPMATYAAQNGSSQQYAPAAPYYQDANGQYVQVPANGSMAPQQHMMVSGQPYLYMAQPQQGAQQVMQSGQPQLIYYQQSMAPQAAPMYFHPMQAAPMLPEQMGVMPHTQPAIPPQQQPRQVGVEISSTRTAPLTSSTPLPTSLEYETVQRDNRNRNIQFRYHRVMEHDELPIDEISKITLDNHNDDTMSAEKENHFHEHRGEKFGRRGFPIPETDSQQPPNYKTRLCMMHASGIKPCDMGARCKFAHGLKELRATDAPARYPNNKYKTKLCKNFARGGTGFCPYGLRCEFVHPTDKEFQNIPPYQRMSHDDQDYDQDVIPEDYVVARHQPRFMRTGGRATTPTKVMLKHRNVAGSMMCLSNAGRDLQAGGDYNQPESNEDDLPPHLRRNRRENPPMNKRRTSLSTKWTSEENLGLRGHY

[3] = biological target: Large T antigen (Simian virus 40, UniProt P03070); type: functional, Betapolyomavirus macacae;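 further: Confirmatory-stage PubChem screen for compounds that inhibit SV40 T antigen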
[4] = biological target: Intestinal-type alkaline phosphatase (Mus musculus, UniProt P24822); test: PubChem AID 488785; type: functional
[5] = biological target: T3, Alkaline phosphatase, tissue-nonspecific isozyme (Homo sapiens, UniProt P05186); test: TNAP enzyme inhibition by screening hits, dose response, selectivity assay for mouse IAP inhibitor project, biochemical, human TNAP, uHTS hits (AID 488906); type: functional
T3 sequence (P05186 whole entry): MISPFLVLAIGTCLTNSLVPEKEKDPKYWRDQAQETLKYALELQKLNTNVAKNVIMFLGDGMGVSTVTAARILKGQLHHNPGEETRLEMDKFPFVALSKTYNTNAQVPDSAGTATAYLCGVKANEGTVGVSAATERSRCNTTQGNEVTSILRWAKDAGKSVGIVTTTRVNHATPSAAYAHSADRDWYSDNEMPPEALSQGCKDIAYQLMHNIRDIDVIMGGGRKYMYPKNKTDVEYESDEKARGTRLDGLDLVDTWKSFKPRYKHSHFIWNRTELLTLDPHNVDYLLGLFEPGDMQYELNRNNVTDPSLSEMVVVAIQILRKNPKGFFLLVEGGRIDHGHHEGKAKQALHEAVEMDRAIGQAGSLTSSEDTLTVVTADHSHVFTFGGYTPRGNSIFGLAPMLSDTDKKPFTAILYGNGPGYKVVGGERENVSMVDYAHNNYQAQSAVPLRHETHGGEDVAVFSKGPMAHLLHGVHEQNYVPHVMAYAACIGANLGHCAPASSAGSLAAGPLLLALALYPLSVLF

[6] = biological target: Intestinal-type alkaline phosphatase (Homo sapiens, UniProt P09923); test: inhibition of human intestinal alkaline phosphatase – biochemical, dose response (AID 488876); type: functional
[7] = viability of uninfected HEp-2 cells – cell-based, HTS, cytotoxicity control for RSV inhibitor project, dose response (AID 2410); type: functional; details: human respiratory syncytial virus
[8] = biological target: T4, Calpain-2 catalytic subunit (Sus scrofa, UniProt P43367); test: m-calpain protease blockers, concentration series – biochemical, fluorogenic peptide substrate, dose response (AID 1420); type: functional
T4 sequence (P43367 whole entry): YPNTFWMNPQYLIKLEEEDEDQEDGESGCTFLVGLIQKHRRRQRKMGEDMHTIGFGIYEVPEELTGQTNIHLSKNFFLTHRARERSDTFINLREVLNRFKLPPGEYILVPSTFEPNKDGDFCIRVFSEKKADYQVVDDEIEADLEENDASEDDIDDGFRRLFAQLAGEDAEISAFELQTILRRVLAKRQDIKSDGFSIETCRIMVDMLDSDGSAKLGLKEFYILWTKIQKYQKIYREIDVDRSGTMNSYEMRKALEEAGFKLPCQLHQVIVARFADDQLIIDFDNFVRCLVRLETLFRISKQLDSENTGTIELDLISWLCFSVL

[9] = biological target: CAAX prenyl protease 1 (Saccharomyces cerevisiae S288c, UniProt P47154); test: yeast CAAX protease Ste24 inhibition – biochemical, S. cerevisiae, plate reader, cherry-pick, dose response (AID 488815)
[10] = biological target: T5, Nucleotide-binding oligomerization domain-containing protein 1 (Homo sapiens, UniProt Q9Y239); test: SAR analysis of NF-kappaB dependent luciferase using DAP as an inducer - Set 2. [Related pubchem assays (depositor defined):AID1566, AID1575, AID1578, AID1579, AID1849, AID1852, AID2264]; type: functional
T5 sequence (Q9Y239 whole entry): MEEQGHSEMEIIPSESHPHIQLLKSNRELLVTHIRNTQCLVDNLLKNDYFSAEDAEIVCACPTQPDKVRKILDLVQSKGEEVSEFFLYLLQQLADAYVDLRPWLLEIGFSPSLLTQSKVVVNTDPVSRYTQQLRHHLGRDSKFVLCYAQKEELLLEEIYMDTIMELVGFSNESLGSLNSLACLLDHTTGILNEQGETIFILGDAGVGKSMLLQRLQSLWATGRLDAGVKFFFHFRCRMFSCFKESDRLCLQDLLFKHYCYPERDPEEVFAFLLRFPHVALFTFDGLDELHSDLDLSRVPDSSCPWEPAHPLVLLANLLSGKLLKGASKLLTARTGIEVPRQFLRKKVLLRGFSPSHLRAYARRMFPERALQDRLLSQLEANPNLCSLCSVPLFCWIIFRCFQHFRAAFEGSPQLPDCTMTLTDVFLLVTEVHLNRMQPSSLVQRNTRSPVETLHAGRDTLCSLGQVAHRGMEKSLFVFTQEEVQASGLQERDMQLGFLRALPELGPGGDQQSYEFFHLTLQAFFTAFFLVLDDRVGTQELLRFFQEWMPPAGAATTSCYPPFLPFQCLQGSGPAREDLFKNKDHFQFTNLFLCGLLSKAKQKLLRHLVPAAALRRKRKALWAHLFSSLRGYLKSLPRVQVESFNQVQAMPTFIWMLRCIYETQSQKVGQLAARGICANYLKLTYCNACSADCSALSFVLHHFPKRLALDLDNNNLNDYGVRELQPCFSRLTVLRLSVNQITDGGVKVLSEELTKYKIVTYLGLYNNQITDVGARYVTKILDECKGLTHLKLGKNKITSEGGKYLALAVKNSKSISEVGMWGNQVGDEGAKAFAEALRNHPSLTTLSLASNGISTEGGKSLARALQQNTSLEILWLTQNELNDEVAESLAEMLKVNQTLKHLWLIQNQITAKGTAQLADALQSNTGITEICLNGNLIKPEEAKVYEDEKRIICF

[11] = biological target: T6, Interleukin-8 (Homo sapiens, UniProt P10145); test: SAR analysis of Tumor necrosis factor alpha (TNF-alpha) induced IL-8 secretion in MCF-7/NOD1 cells - Set 2. [Related pubchem assays (depositor defined):AID1575, AID2250, AID2260]; type: functional, cell-based
T6 sequence (P10145 whole entry): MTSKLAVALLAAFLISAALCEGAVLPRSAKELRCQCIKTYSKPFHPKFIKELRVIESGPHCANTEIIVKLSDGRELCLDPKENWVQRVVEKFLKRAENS

[12] = biological target: T6, Interleukin-8; test: SAR analysis of GM-Tri-DAP induced IL-8 secretion in MCF-7/NOD1 cells - Set 2. [Related pubchem assays (depositor defined):AID1575, AID1578, AID2333]; type: functional, cell-based
[13] = biological target: T7, Nucleotide-binding oligomerization domain-containing protein 2 (Homo sapiens, UniProt Q9HC29); test: inhibition of NOD2 signaling – set 2, SAR follow-up (AID 2475); type: functional
[14] = test system: HEK293; test: SAR analysis of compounds that are cytotoxic to HEK293 - Set 2. [Related pubchem assays (depositor defined):AID1575, AID1578, AID1849, AID2001, AID2333, AID2334, AID2335, AID2337, AID2800]; type: functional, cell-based; details: Homo sapiens
[15] = biological target: T5, Nucleotide-binding oligomerization domain-containing protein 1; test: SAR analysis of compounds that inhibit NOD1 - Set 2. [Related pubchem assays (depositor defined):AID1566, AID1575, AID1578, AID1849, AID1852, AID2333, AID2335, AID2798]; type: functional
[16] = biological target: T5, Nucleotide-binding oligomerization domain-containing protein 1; test: SAR analysis of compounds that inhibit NOD1 - Set 3. [Related pubchem assays (depositor defined):AID1566, AID1575, AID1578, AID1849, AID1852, AID2333, AID2335, AID2466]; type: functional
[17] = biological target: Tumor necrosis factor (Homo sapiens, UniProt P01375); test: analog potency on TNFa NF-kB signaling – cell-based, set 3, SAR follow-up (AID 2801); type: functional
[18] = test system: HEK293; test: SAR analysis of compounds that are cytotoxic to HEK293 - Set 3. [Related pubchem assays (depositor defined):AID1575, AID1578, AID1848, AID1849, AID2001, AID2333, AID2334, AID2335, AID2337, AID2469]; type: functional, cell-based; details: Homo sapiens
[19] = biological target: T7, Nucleotide-binding oligomerization domain-containing protein 2; test: inhibition of MDP-driven NOD2 NF-kB reporter – cell-based, set 3, SAR follow-up (AID 2799); type: functional

T7 sequence (Q9HC29 whole entry, the tested form may be a part): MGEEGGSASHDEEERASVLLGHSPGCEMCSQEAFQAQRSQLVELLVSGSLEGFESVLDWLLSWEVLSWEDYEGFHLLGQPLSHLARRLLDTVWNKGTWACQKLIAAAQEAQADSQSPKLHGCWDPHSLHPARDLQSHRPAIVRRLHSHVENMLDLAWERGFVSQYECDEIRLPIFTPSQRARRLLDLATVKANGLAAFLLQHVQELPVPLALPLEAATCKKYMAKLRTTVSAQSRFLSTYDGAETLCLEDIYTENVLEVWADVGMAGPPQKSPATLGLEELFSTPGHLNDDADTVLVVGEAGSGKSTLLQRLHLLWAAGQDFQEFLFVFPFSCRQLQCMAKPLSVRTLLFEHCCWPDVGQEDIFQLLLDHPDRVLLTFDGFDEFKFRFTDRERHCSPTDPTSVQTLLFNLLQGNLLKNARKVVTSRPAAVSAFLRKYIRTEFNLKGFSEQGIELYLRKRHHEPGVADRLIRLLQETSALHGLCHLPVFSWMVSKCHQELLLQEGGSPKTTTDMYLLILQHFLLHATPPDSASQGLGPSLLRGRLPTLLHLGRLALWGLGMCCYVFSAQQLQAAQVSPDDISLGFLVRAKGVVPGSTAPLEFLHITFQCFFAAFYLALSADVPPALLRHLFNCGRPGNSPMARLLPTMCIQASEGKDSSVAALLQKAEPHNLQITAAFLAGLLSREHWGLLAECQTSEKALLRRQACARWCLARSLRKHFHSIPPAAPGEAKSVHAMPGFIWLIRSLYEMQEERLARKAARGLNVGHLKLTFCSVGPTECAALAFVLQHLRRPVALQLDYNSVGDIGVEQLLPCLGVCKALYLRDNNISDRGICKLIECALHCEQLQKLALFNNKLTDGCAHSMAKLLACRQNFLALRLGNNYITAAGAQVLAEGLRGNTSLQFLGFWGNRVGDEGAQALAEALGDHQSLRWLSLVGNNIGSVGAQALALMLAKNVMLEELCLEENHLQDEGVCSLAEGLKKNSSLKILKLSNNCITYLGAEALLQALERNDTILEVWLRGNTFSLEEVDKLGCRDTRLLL
Large T antigen, sequence (P03070 whole entry): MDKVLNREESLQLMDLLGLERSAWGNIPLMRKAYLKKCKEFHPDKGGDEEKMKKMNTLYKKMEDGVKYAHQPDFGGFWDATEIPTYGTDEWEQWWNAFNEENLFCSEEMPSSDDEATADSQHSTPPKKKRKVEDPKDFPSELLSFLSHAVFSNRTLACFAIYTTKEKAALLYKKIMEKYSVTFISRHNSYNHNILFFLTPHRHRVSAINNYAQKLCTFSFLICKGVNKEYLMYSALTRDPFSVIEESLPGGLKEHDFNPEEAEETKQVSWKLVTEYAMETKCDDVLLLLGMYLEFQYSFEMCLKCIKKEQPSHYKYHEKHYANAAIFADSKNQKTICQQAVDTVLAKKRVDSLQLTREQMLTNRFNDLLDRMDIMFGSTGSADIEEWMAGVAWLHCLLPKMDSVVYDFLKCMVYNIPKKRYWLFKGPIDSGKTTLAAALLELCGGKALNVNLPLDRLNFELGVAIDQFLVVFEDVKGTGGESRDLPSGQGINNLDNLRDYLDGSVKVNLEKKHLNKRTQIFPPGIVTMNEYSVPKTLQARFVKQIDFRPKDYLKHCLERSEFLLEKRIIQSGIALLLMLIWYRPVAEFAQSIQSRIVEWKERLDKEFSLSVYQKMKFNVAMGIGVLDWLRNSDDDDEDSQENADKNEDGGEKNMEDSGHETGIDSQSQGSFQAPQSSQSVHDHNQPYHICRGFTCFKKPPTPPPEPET
Intestinal-type alkaline phosphatase (Mus musculus, UniProt P24822), sequence (P24822 whole entry): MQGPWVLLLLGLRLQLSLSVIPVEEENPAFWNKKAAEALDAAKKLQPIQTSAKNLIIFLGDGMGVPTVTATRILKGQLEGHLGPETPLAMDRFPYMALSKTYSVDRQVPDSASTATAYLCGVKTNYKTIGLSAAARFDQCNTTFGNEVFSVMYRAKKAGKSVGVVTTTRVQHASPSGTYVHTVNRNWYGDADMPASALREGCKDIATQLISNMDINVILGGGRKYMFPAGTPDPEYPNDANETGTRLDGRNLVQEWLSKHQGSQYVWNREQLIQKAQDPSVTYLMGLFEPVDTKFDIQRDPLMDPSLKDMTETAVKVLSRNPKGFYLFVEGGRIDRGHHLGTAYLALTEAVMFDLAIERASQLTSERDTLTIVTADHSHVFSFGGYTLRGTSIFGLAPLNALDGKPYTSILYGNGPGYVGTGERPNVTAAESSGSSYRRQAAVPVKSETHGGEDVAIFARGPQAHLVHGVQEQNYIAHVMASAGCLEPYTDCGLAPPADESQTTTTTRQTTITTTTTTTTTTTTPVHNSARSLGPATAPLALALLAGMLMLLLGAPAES
Tumor necrosis factor, sequence (P01375 whole entry): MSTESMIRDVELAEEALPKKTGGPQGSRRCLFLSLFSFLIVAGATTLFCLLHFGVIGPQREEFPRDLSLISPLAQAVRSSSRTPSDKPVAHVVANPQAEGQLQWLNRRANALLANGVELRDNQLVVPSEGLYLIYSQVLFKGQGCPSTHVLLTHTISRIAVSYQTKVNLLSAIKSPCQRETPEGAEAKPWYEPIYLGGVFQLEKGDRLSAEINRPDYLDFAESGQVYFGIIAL
Intestinal-type alkaline phosphatase (Homo sapiens, UniProt P09923), sequence (P09923 whole entry): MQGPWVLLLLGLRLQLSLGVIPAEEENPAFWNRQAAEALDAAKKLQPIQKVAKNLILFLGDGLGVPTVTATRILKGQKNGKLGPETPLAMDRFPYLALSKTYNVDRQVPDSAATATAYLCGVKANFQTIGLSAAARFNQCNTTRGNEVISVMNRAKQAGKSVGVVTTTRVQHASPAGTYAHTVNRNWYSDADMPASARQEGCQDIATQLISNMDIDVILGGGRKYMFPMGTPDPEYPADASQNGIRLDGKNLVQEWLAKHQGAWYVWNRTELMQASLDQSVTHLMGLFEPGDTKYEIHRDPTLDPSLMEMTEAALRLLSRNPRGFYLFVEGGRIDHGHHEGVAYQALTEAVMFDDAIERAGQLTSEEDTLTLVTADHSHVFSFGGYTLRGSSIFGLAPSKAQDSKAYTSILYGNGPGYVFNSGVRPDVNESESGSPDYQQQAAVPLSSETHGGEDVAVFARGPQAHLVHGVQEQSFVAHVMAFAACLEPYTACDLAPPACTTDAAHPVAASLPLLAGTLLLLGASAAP
CAAX prenyl protease 1, sequence (P47154 whole entry, the tested form may be a part): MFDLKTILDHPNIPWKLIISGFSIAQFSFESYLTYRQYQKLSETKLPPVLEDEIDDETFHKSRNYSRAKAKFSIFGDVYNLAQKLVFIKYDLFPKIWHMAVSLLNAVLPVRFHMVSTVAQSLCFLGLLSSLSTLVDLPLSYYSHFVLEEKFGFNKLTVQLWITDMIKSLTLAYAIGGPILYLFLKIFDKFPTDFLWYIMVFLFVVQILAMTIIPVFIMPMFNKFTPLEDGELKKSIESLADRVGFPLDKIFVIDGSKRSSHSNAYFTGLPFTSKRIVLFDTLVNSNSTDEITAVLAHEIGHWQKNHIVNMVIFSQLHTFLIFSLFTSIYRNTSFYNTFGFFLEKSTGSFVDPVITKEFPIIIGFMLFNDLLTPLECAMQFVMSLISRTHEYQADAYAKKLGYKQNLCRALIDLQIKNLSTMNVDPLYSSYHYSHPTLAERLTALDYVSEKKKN

O=C1CNC(=S)N1CCc1ccc(O)c(O)c1
EC50 [1]: > 300 µM (not active)
EC50 [2]: 26.8 µM (active)
IC50 [3]: 39.6 µM (active)
IC50 [4]: 6 µM (active)
IC50 [5]: > 100 µM (inactive)
IC50 [6]: > 100 µM (inactive)

Cc1ccc(Nc2nc(-c3ccc(S(=O)(=O)N4CCOCC4)cc3)cs2)cc1Cl
CC50 [7]: 4.91 µM (active)
IC50 [8]: 9.54 µM (active)
AC50 [9]: > 100 µM (inactive)

CCCn1c(SCCc2ccccc2)nc2c1c(=O)[nH]c(=O)n2C
IC50 [10]: > 25 µM (inactive)
IC50 [11]: > 25 µM (inactive)
IC50 [12]: > 25 µM (inactive)
IC50 [13]: > 20 µM (inactive)
IC50 [14]: > 20 µM (inactive)
IC50 [15]: > 20 µM (inactive)
IC50 [16]: > 20 µM (inactive)
IC50 [17]: > 20 µM (inactive)
IC50 [18]: > 20 µM (inactive)
IC50 [19]: > 20 µM (inactive)
